Structures can show the parent of a compound that is named as a salt.
The compounds below were run against T1, α2δ subunit derived from porcine brain tissue (Sus scrofa, UniProt A0A287BIN3) (assay: radioligand binding assay using [3H]gabapentin). Settings: [3H]gabapentin binding.
T1 construct: the α2δ subunit derived from porcine brain tissue; from tissue; host or cells: porcine brain tissue
From the text: The biological activity of the alpha-2-delta ligands of the invention may be measured in a radioligand binding assay using [^3H]gabapentin and the α2δ subunit derived from porcine brain tissue (Gee N. S., Brown J. P., Dissanayake V. U. K., Offord J., Thurlow R., Woodruff G. N., J. Biol. Chem., 1996;271:5879-[…]). Results may be expressed in terms of μM or nM α2δ binding affinity.

T1 sequence (A0A287BIN3 25-1109): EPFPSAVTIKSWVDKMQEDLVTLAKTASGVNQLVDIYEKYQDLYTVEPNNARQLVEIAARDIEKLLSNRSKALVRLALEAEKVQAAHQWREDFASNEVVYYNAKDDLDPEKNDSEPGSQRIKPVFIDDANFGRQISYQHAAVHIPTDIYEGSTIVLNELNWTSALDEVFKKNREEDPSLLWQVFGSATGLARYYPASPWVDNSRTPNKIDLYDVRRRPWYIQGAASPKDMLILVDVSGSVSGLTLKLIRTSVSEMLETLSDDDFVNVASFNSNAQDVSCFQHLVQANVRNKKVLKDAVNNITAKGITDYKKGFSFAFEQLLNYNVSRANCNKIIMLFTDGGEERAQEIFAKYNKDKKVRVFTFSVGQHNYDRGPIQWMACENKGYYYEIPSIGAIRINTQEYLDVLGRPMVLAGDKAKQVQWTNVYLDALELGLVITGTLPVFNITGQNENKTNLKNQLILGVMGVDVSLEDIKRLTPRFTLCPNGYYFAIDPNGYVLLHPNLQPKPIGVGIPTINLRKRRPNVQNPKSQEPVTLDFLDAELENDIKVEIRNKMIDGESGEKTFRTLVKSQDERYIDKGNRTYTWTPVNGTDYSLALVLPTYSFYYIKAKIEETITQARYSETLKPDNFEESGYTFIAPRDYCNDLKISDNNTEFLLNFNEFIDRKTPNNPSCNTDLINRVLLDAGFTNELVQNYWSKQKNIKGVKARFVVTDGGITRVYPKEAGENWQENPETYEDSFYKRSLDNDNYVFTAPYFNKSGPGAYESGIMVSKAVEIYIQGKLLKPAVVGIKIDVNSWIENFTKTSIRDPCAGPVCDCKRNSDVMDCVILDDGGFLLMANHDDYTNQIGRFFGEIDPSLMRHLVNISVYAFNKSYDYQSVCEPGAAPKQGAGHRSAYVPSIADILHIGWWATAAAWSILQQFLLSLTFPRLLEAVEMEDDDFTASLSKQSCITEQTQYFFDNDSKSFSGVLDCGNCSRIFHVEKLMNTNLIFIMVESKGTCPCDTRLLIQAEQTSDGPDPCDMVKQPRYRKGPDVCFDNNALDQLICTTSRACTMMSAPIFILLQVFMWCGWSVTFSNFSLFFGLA

O=C(O)[C@@H]1C[C@H](Cc2cccc(F)c2)CN1 [Example 10, (2S,4S)-4-(3-Fluoro-benzyl)-pyrrolidine-2-carboxylic acid mono hydrochloride salt] was tested. Which IC50 did it give?
Its IC50 is 11 nM.

Which IC50 does the source give for O=C(O)[C@@H]1C[C@H](Cc2cc(F)ccc2F)CN1 [Example 12, (2S,4S)-4-(2,5-Difluoro-benzyl)-pyrrolidine-2-carboxylic acid mono hydrochloride salt] here?
The IC50 was 7 nM.

With O=C(O)[C@@H]1C[C@H](Cc2cccc(F)c2F)CN1 [Example 11, (2S,4S)-4-(2.3-Difluoro-benzyl)-pyrrolidine-2-carboxylic acid mono-hydrochloride salt] as the compound, how does the IC50 read?
The IC50 was 15 nM.

O=C(O)[C@@H]1C[C@H](Sc2ccccc2)CN1 [Example 4, (2S,4S)-4-phenylthio-pyrrolidine-2-carboxylic acid] was tested. Which IC50 did it give?
The IC50 was 72 nM.

O=C(O)[C@@H]1C[C@H](Oc2ccc3ccncc3c2)CN1 [Example 7] was tested. Which IC50 did it give?
Its IC50 is 210 nM.

With O=C(O)[C@@H]1C[C@H](OCc2ccc(Cl)cc2)CN1 [Example 2, (2S,4S)-4-[(4-chlorobenzyl)oxyl]-pyrrolidine-2-carboxylic acid] as the compound, how does the IC50 read?
The IC50 was 119 nM.

For O=C(O)[C@@H]1C[C@H](Oc2cccc(Cl)c2)CN1 [Example 8, (2S,4S)-4-(3-Chloro-phenoxy)-pyrrolidine-2-carboxylic acid], which IC50 is on record?
Its IC50 is 5 nM.

Which IC50 does the source give for COc1cccc(C[C@@H]2CN[C@H](C(=O)O)C2)c1 [Example 14, (2S,4S)-4-(3-Methoxy-benzyl)-pyrrolidine-2-carboxylic acid mono hydrochloride salt] here?
The IC50 was 9 nM.
